pIC50: −log10 of the molar value.
Legend:
[1] = target: T1, CDK4/Cyclin D1 (Homo sapiens, UniProt P11802); experiment: CDK inhibition assay (Scintillation Proximity Assay, GST-Retinoblastoma substrate); format: biochemical; conditions: in-vitro SPA kinase assay, CDK4/Cyclin D1, GST-Rb substrate; read-out: CDK4 inhibitory activity IC50
T1 construct: CDK4 amino acids 1–303; made in house; host or cells: Sf21 (Spodoptera frugiperda) insect cells, baculovirus co-infection, vector pVL1393
Experimental: The compounds were tested in an in vitro kinase assay in 96 well format using Scintillation Proximity Assay (SPA—obtained from Amersham) for measuring incorporation of [γ-33-P]-Adenosine Triphosphate into a test substrate (GST-Retinoblastoma). In each well was placed the compound to be tested (diluted in DMSO and water to correct concentrations) and in control wells either p16 as an inhibitor control or DMSO as a positive control.
Approximately 0.5 μl of CDK4/Cyclin D1 partially-purified enzyme (amount dependent on enzyme activity) diluted in 25 μl incubation buffer was added to each well then 20 μl of GST-Rb/ATP/ATP33 mixture (containing 0.5 μg GST-Rb and 0.2 μM ATP and 0.14 μCi [γ-33-P]-Adenosine Triphosphate), and the resulting mixture shaken gently, then incubated at room temperature for 60 minutes.
To each well was then added 150 μL stop solution containing (0.8 mg/well of Protein A-PVT SPA bead (Amersham)), 20 pM/well of Anti-Glutathione Transferase, Rabbit IgG (obtained from Molecular Probes), 61 mM EDTA and 50 mM HEPES pH 7.5 containing 0.05% sodium azide.
The plates were sealed with Topseal-S plate sealers, left for two hours then spun at 2500 rpm, 1124×g., for 5 minutes. The plates were read on a Topcount for 30 seconds per well. […]

[2] = target: T2, human Focal Adhesion Kinase (FAK) (Homo sapiens, UniProt Q05397); experiment: FAK3 kinase inhibition assay (in vitro enzyme ELISA); format: biochemical; conditions: Poly (Glu, Ala, Tyr) substrate, read-out: FAK inhibitory activity IC50
T2 construct: FAK (full length human cDNA described by Andre et al); made in house; host or cells: Sf21 (Spodoptera frugiperda) insect cells, baculovirus (pFastbac 1)
Experimental: A stock of substrate solution was prepared from a random copolymer containing tyrosine, for example Poly (Glu, Ala, Tyr) 6:3:1 (Sigma P3899), stored as 1 mg/ml stock in PBS at −20° C. and diluted 1 in 500 with PBS for plate coating.
The liquid was then discarded and the wells were washed twice with PBST.

T1 sequence (P11802 whole entry, the tested form may be a part): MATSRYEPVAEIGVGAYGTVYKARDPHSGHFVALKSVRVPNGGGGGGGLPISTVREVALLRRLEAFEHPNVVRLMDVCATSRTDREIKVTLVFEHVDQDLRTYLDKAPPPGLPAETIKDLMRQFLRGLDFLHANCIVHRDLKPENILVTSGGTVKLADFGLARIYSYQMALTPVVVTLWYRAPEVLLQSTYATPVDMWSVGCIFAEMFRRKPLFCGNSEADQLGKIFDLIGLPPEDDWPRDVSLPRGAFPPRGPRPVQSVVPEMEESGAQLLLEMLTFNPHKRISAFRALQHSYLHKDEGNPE
T1 sequence (P24385 whole entry partner, the tested form may be a part): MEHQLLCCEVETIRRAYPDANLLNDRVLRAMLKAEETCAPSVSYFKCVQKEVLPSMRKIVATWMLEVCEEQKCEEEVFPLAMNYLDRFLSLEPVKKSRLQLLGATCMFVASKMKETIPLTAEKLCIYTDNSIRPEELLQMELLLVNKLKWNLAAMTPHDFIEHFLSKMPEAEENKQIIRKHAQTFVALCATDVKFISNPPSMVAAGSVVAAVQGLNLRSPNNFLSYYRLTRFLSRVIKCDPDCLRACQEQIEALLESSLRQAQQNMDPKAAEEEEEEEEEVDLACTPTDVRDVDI
T2 sequence (Q05397 whole entry): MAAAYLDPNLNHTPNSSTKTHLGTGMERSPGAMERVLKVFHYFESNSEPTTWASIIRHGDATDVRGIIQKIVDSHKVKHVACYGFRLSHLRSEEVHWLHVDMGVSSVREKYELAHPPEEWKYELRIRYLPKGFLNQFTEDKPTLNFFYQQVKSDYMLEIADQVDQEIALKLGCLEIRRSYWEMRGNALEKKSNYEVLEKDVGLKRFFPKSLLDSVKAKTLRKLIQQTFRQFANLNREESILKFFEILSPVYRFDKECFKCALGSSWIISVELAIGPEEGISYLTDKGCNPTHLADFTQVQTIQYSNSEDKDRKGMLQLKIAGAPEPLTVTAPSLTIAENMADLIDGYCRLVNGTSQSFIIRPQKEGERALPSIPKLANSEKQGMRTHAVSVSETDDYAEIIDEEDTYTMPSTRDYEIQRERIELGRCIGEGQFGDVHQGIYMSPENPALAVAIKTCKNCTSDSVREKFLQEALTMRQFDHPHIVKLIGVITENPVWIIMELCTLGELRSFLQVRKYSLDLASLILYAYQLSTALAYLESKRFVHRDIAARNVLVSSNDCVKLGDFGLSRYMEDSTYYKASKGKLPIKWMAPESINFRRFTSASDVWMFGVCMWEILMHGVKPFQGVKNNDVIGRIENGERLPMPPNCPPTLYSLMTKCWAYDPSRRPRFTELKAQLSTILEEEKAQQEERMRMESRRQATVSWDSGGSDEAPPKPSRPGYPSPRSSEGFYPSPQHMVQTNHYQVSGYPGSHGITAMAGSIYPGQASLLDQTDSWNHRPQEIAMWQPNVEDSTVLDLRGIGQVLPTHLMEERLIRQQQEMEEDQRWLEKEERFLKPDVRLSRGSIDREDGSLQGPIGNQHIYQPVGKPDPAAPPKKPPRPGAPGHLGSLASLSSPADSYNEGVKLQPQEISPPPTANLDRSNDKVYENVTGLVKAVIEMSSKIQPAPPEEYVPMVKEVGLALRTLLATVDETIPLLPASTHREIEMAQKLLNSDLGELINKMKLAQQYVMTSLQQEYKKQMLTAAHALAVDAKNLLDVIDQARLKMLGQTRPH

Structure (SMILES)	pIC50 [1]	pIC50 [2]
CN(C)CC(O)COc1ccc(Nc2nccc(Nc3cc(Cl)ccc3Cl)n2)cc1 (stereo not drawn) [Example 11, 2-{4-[3-(N,N-Dimethyl)amino-2-hydroxy-propoxy]anilino}-4-(2,5-dichloroanilino)pyrimidine]	6.28	–
Cc1ccc(Nc2ccnc(Nc3ccc(OCC(O)CN(C)C)cc3)n2)c(Br)c1 (stereo not drawn) [Example 3, 2-{4-[3-(N,N-Dimethyl)amino-2-hydroxy-propoxy]anilino}-4-(2-bromo-4-methylanilino)pyrimidine]	6.22	5.48
